Reference: ChEMBL document CHEMBL5032540, “Design, Synthesis, and Biological Evaluation of Novel EGFR PROTACs Targeting Del19/T790M/C797S Mutation” (ACS Med Chem Lett, 2022)
Active and inactive are the calls of the source. The rule behind the calls is not given here.

How the values were obtained:
BaF3 [1] = test: Antiproliferative activity against mouse BaF3 cells expressing EGFR del19/T790M/C797S triple mutant assessed as cell growth inhibition measured after 72 hrs by CCK8 assay; type: functional, cell-based; conditions: BaF3, 72 h
BaF3 [2] = test: Induction of EGFR del19/T790M/C797S triple mutant degradation in mouse BaF3 cells at 0.1 uM measured after 3 hrs by Western blot analysis relative to control; type: cell-based
BaF3 [3] = test: Induction of EGFR del19/T790M/C797S triple mutant degradation in mouse BaF3 cells at 0.01 uM measured after 3 hrs by Western blot analysis relative to control; type: cell-based
BaF3 [4] = test: Induction of EGFR del19/T790M/C797S triple mutant degradation in mouse BaF3 cells at 0.01 to 0.1 uM measured after 3 hrs by Western blot analysis; type: cell-based; conditions: dose 0.01-0.1 µM
BaF3 [5] = test: Induction of EGFR del19/T790M/C797S triple mutant degradation in mouse BaF3 cells at 0.1 uM preincubated with compound for 3 hrs followed by compound washout and measured after 24 hrs by Western blot analysis; type: cell-based
[6] = target: RAC-alpha serine/threonine-protein kinase (Mus musculus) (UniProt P31750); test: Inhibition of Akt phosphorylation in mouse BaF3 cells expressing EGFR del19/T790M/C797S triple mutant after 3 hrs by Western blot analysis; type: cell-based; conditions: dose 0.001-10 µM
Sequence of RAC-alpha serine/threonine-protein kinase (Mus musculus) (P31750 whole entry): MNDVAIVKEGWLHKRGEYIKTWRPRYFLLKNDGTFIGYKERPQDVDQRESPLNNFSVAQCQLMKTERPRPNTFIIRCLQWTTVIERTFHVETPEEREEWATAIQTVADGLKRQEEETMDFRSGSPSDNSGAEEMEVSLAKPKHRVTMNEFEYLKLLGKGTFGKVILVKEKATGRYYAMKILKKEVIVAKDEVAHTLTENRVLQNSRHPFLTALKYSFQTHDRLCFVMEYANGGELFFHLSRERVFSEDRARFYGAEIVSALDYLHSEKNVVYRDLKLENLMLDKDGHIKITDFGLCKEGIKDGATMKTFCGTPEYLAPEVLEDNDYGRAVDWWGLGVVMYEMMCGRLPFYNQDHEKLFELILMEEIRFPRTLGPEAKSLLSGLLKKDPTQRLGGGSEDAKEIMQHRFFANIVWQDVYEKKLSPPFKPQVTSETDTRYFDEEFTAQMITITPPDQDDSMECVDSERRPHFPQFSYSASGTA

BaF3 [7] = test: Inhibition of ERK phosphorylation in mouse BaF3 cells expressing EGFR del19/T790M/C797S triple mutant after 3 hrs by Western blot analysis; type: cell-based; conditions: dose 0.001-10 µM
BaF3 [8] = test: Induction of EGFR del19/T790M/C797S triple mutant degradation in mouse BaF3 cells at 1 uM after 3 hrs by immunoblotting analysis relative to control; type: cell-based
BaF3 [9] = test: Induction of EGFR del19/T790M/C797S triple mutant degradation in mouse BaF3 cells after 3 hrs by immunoblotting analysis; type: cell-based; conditions: dose 0.001-10 µM
BaF3 [10] = test: Induction of EGFR del19/T790M/C797S triple mutant degradation in mouse BaF3 cells at 0.1 uM preincubated for 3 hrs with EGFR inhibitor 3 followed by compound addition and measured after 3 hrs by Western blot analysis; type: cell-based
BaF3 [11] = test: Induction of EGFR del19/T790M/C797S triple mutant degradation in mouse BaF3 cells at 0.1 uM measured after 3 to 24 hrs by Western blot analysis; type: cell-based; conditions: time 3-24 hrs
[12] = system: Epidermal growth factor receptor (Homo sapiens), P00533 [UNDEFINED MUTATION]; test: Induction of EGFR del19 mutant degradation in human HCC827 cells assessed as decrease in EGFR protein level at 0.005 to 0.5 uM measured after 3 hrs by Western blot assay; type: cell-based; conditions: dose 0.005-0.5 µM
[13] = target: Epidermal growth factor receptor (Homo sapiens) (UniProt P00533); test: Induction of EGFR degradation in human A-431 cells assessed as decrease in EGFR protein level at 0.005 to 0.5 uM measured after 3 hrs by Western blot assay; type: cell-based; conditions: dose 0.005-0.5 µM
[14] = system: Epidermal growth factor receptor (Homo sapiens), P00533 [L858R]; test: Induction of EGFR L858R mutant degradation in human […] cells assessed as decrease in EGFR protein level at 0.005 to 0.5 uM measured after 3 hrs by Western blot assay; type: cell-based; conditions: NCI-H3255, dose 0.005-0.5 µM
[15] = system: Epidermal growth factor receptor (Homo sapiens), P00533 [L858R,T790M]; test: Induction of EGFR L858R/T790M mutant degradation in human NCI-H1975 cells assessed as decrease in EGFR protein level at 0.005 to 0.5 uM measured after 3 hrs by Western blot assay; type: cell-based; conditions: dose 0.005-0.5 µM
NCI-H1975 = test: Antiproliferative activity against human NCI-H1975 cells expressing EGFR L858R/T790M double mutant assessed as cell growth inhibition after 72 hrs by CCK-8 assay; type: functional, cell-based; conditions: NCI-H1975, 72 h
NCI-H3255 = test: Antiproliferative activity against human NCI-H3255 cells expressing L858R mutant assessed as cell growth inhibition after 72 hrs by CCK-8 assay; type: functional, cell-based; conditions: NCI-H3255, 72 h
HCC827 = test: Antiproliferative activity against human HCC827 cells expressing EGFR del19 mutant assessed as cell growth inhibition after 72 hrs by CCK-8 assay; type: functional, cell-based; conditions: HCC827, 72 h
A-431 = test: Antiproliferative activity against human A-431 cells expressing wild-type EGFR assessed as cell growth inhibition after 72 hrs by CCK-8 assay; type: functional, cell-based; conditions: A-431, 72 h
BaF3 [16] = test: Induction of EGFR del19/T790M/C797S triple mutant degradation in mouse BaF3 cells at 0.1 uM preincubated for 3 hrs with VHL ligand 5 followed by compound addition and measured after 3 hrs by Western blot analysis; type: cell-based
BaF3 [17] = test: Induction of EGFR del19/T790M/C797S triple mutant degradation in mouse BaF3 cells at 0.1 uM preincubated for 2 hrs with proteosome inhibitor MG132 followed by compound addition and measured after 3 hrs by Western blot analysis; type: cell-based
EML4-ALK (Homo sapiens) = EML4-ALK (Homo sapiens) (UniProt Q9UM73+Q9HC35); test: Induction of EML4-ALK fusion protein degradation in mouse BaF3 cells at 0.001 to 10 uM after 3 hrs by Western blot analysis; type: cell-based; conditions: dose 0.001-10 µM
Sequence of EML4-ALK (Homo sapiens) (Q9HC35 whole entry partner, the tested form may be a part): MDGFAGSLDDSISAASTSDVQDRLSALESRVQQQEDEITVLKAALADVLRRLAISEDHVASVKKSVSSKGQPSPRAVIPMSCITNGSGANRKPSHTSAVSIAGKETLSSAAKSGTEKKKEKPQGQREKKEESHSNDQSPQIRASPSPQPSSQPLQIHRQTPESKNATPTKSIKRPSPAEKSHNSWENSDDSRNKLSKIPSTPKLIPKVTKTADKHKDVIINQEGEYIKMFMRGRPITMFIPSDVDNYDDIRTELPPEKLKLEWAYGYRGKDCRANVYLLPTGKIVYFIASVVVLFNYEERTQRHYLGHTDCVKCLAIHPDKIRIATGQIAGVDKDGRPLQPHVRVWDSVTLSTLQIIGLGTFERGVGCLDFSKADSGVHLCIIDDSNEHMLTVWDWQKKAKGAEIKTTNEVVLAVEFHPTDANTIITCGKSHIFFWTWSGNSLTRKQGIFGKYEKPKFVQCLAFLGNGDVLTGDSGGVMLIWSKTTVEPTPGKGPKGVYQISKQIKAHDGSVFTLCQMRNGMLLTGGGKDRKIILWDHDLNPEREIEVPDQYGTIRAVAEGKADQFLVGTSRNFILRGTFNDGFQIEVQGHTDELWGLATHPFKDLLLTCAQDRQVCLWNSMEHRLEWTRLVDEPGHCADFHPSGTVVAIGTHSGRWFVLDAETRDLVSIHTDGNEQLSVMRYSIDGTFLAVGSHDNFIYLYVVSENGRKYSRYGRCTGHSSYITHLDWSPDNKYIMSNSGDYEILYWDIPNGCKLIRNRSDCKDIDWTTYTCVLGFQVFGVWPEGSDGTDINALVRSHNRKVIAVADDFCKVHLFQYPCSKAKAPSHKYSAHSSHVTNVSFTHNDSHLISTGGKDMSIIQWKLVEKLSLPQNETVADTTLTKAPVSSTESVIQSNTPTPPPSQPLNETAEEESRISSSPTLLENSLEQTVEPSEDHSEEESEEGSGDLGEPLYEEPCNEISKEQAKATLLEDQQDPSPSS
Sequence of EML4-ALK (Homo sapiens) (Q9UM73 19-1620 limits assumed): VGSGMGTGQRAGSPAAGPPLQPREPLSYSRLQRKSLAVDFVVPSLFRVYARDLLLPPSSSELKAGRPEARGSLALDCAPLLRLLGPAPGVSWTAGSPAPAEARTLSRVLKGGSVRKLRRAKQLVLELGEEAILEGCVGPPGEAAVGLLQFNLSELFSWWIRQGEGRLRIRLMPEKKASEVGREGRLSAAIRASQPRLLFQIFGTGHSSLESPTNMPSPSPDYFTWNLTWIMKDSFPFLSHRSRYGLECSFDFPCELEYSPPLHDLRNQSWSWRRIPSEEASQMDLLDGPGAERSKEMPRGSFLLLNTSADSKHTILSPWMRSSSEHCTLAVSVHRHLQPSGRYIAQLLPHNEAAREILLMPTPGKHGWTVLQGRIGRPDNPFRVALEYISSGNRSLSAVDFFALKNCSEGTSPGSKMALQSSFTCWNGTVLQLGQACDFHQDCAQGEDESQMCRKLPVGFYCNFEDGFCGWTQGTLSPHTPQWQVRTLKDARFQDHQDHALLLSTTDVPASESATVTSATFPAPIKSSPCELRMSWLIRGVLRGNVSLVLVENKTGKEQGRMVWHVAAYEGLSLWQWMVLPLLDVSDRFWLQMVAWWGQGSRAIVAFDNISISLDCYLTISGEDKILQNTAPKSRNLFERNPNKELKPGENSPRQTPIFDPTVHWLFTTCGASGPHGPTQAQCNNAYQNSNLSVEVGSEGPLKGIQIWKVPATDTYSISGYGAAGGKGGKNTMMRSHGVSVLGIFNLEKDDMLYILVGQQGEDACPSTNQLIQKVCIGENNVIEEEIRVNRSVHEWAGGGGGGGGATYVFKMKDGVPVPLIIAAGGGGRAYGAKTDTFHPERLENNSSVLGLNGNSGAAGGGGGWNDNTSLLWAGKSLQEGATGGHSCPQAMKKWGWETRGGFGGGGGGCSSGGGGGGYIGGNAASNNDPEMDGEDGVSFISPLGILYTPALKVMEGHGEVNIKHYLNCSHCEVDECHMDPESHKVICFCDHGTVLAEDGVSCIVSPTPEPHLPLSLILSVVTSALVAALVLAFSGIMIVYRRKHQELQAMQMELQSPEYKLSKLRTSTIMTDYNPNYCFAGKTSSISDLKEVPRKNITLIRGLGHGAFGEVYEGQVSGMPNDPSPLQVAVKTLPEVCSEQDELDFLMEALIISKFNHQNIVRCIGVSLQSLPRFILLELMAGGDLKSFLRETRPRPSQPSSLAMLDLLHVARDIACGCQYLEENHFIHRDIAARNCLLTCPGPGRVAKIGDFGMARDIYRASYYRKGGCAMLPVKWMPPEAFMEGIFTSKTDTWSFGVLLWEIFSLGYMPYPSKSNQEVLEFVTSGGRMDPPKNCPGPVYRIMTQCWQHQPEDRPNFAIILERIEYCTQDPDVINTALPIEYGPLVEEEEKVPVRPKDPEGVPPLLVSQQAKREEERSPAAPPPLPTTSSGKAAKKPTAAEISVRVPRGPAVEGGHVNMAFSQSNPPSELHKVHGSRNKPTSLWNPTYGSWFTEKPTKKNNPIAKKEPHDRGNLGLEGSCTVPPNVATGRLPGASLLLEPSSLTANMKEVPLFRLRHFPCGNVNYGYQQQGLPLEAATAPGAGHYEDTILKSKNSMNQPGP

Question: Which results are given for `COc1cc(N2CCN(CCCCCC(=O)N[C@H](C(=O)N3C[C@H](O)C[C@H]3C(=O)N[C@@H](C)c3ccc(-c4scnc4C)cc3)C(C)(C)C)CC2)ccc1Nc1ncc(Cl)c(Nc2ccccc2S(=O)(=O)C(C)C)n1`?
Answer: IC50 (BaF3 [1]): 0.24 µM; Activity (BaF3 [2]): 56.9%; Activity (BaF3 [3]): 48.5%

Question: What does the source list for `COc1cc(N2CCN(CCCC(=O)N[C@H](C(=O)N3C[C@H](O)C[C@H]3C(=O)N[C@@H](C)c3ccc(-c4scnc4C)cc3)C(C)(C)C)CC2)ccc1Nc1ncc(Cl)c(Nc2ccccc2P(C)(C)=O)n1`?
Answer: IC50 (BaF3 [1]): 0.37 µM; Activity (BaF3 [2]): 22.7%; Activity (BaF3 [3]): 6.2%

Question: With `COc1cc(C2CCN(CCCCCC(=O)N[C@H](C(=O)N3C[C@H](O)C[C@H]3C(=O)N[C@@H](C)c3ccc(-c4scnc4C)cc3)C(C)(C)C)CC2)ccc1Nc1ncc(Cl)c(Nc2ccccc2N(C)S(C)(=O)=O)n1` as the compound, how does the IC50 (BaF3 [1]) read?
Answer: The IC50 was 0.07 µM.

Question: And the Activity (BaF3 [2])?
Answer: The Activity was 74.1%.

Question: And the Activity (BaF3 [3])?
Answer: Its Activity is 58.4%.

Question: `COc1cc(N2CCN(CCCCCC(=O)N[C@H](C(=O)N3C[C@H](O)C[C@H]3C(=O)N[C@@H](C)c3ccc(-c4scnc4C)cc3)C(C)(C)C)CC2)ccc1Nc1ncc(Cl)c(Nc2ccccc2P(C)(C)=O)n1` was tested. Which IC50 (BaF3 [1]) did it give?
Answer: The IC50 was 0.05 µM.

Question: And the Activity (BaF3 [2])?
Answer: Its Activity is 75.4%.

Question: What about the Activity (BaF3 [3]) of the same compound?
Answer: Its Activity is 53.7%.

Question: With `COc1cc(N2CCN(CCCCCCCC(=O)N[C@H](C(=O)N3C[C@@H](O)C[C@H]3C(=O)N[C@@H](C)c3ccc(-c4scnc4C)cc3)C(C)(C)C)CC2)ccc1Nc1ncc(Cl)c(Nc2ccccc2P(C)(C)=O)n1` as the compound, how does the Activity (BaF3 [4]) read?
Answer: Its Activity is “inactive”.

Question: `COc1cc(N2CCN(CCCCCCCC(=O)N[C@H](C(=O)N3C[C@H](O)C[C@H]3C(=O)N[C@@H](C)c3ccc(-c4scnc4C)cc3)C(C)(C)C)CC2)ccc1Nc1ncc(Cl)c(Nc2ccccc2P(C)(C)=O)n1` was tested. Which Activity (BaF3 [5]) did it give?
Answer: Its Activity is “Active”.

Question: And the inhibition [6]?
Answer: Its inhibition is “Dose-Dependent Effect”.

Question: What about the inhibition (BaF3 [7]) of the same compound?
Answer: The inhibition was “Dose-Dependent Effect”.

Question: What about the Activity (BaF3 [8]) of the same compound?
Answer: The Activity was 49.6%.

Question: And the Activity (BaF3 [9])?
Answer: The Activity was “Dose-Dependent Effect”.

Question: What about the Activity (BaF3 [10]) of the same compound?
Answer: The Activity was “inactive”.

Question: What about the Activity (BaF3 [11]) of the same compound?
Answer: The Activity was “Active”.

Question: What about the IC50 (BaF3 [1]) of the same compound?
Answer: The IC50 was 0.02 µM.

Question: What about the Activity (BaF3 [2]) of the same compound?
Answer: Its Activity is 79.1%.

Question: What about the Activity (BaF3 [3]) of the same compound?
Answer: The Activity was 52%.

Question: And the Activity [12]?
Answer: The Activity was “Active”.

Question: And the Activity [13]?
Answer: Its Activity is “inactive”.

Question: What about the Activity [14] of the same compound?
Answer: Its Activity is “inactive”.

Question: What about the Activity [15] of the same compound?
Answer: Its Activity is “inactive”.

Question: And the IC50 (NCI-H1975)?
Answer: Its IC50 is 1.13 µM.

Question: What about the IC50 (NCI-H3255) of the same compound?
Answer: Its IC50 is 0.604 µM.

Question: What about the IC50 (HCC827) of the same compound?
Answer: The IC50 was 0.229 µM.

Question: And the IC50 (A-431)?
Answer: Its IC50 is 0.526 µM.

Question: What about the Activity (BaF3 [16]) of the same compound?
Answer: Its Activity is “inactive”.

Question: And the Activity (BaF3 [17])?
Answer: The Activity was “inactive”.

Question: What about the Activity (EML4-ALK (Homo sapiens)) of the same compound?
Answer: The Activity was “inactive”.

Question: How did the IC50 (BaF3 [1]) turn out when `COc1cc(C2CCN(CCCCCC(=O)N[C@H](C(=O)N3C[C@H](O)C[C@H]3C(=O)N[C@@H](C)c3ccc(-c4scnc4C)cc3)C(C)(C)C)CC2)ccc1Nc1ncc(Cl)c(Nc2ccccc2NS(C)(=O)=O)n1` was run?
Answer: The IC50 was 0.37 µM.

Question: What about the Activity (BaF3 [2]) of the same compound?
Answer: The Activity was 35.2%.

Question: What about the Activity (BaF3 [3]) of the same compound?
Answer: Its Activity is 14%.
